{"source": "patent US20260306657A1", "about": "“LIPOSOME CONJUGATE TARGETING M2 MACROPHAGE AND USE THEREOF” (HANGZHOU NORMAL UNIVERSITY, priority 2022, published 2026)", "key": {"4T1 breast cancer cells": {"tested_on": "4T1 breast cancer cells", "assay": "Cytotoxicity on 4T1 breast cancer cells (CCK-8 method)", "type": "cell-based", "conditions": "24 h, CCK-8, n=3", "experimental": "Cytotoxicity Studies of Tumor-Targeted Liposomes:\n(1) The toxicity of ELE to 4T1 breast cancer cells was studied using a CCK-8 method. 4T1 cells (2×10^4 cells/well) were inoculated in a 96-well plate. After culturing for 24 h, the cells were treated with RMPI-1640 media containing ELE, ELE/Lipo, ELE/Lipo-AS1411, and FA-ELE/Lipo-AS1411 (drug concentrations being 10 μg/mL, 20 μg/mL, 40 μg/mL, 80 μg/mL, and 160 μg/mL, respectively) for 24 h. ELE was dissolved and diluted in medium containing 1% 0 ethanol, and untreated cells were used as a control. 100 μL of 10% CCK-8 solution was added into each well and incubated for 2 h. The absorbance at 450 nm was measured using an enzyme-labeled instrument, and the IC50 value of each drug group was calculated and analyzed using Graphpad9.0. A schematic diagram of the cytotoxicity of different concentrations of free ELE, ELE/Lipo, ELE/Lipo-AS1411, and FA-ELE/Lipo-AS1411 on 4T1 cells was shown in FIG. 5, where n=3, x±SD, ** P<0.01, *** P<0.001, **** P<0.0001 (vs. ELE); #P<0.05, ###P<0.001 (vs. ELE/Lipo-AS1411)."}, "M2 macrophages": {"tested_on": "M2 macrophages", "assay": "Cytotoxicity of ELE on M1 and M2 macrophages (CCK-8 method)", "type": "cell-based", "conditions": "24 h, at 5 concentrations (10-160 μg/mL), * P<0.05, n=3", "experimental": "(2) The toxicity of ELE on M1 and M2 macrophages was studied using the CCK-8 method. RAW264.7 cells were pre-treated to polarize into M1 and M2 macrophages, and the M1 and M2 macrophages (2×10^5 cells/well) were inoculated in a 96-well plate. After culturing for 24 h, the cells were treated with 100 μL of DMEM high-glucose media containing ELE (drug concentrations being 10 μg/mL, 20 μg/mL, 40 μg/mL, 80 μg/mL, and 160 μg/mL, respectively) for 24 h. ELE was dissolved and diluted in medium containing 1% % ethanol, and untreated cells were used as a control. 100 μL of 10% CCK-8 solution was added into each well and incubated for 2 h. The absorbance at 450 nm was measured using an enzyme-labeled instrument, and the IC 50 values of each group of drugs were calculated and analyzed using Graphpad Prism 9.0. A schematic diagram of the cytotoxicity of different concentrations of ELE on M1 and M2 macrophages is shown in FIG. 6, where n=3, x±SD, * P<0.05, *** P<0.001, **** P<0.0001."}}}
{"substance": "Elemene", "values": [{"measurement": "IC50", "setting": "4T1 breast cancer cells", "value": 921.4, "unit": "µg/mL"}, {"measurement": "toxic effect on M2 macrophages (vs. M1 macrophages)", "setting": "M2 macrophages", "value": "selective toxic effect on M2 macrophages"}]}
